Test results as given in patent US20180215784A1, “METHOD FOR PREPARATION OF N-ACYL PEPTIDES, POLYPEPTIDES AND PROTEINS” (NEODEL TEC LTD., priority 2015, published 2018).
Converted amounts (≈) assume the structure as drawn. Where two headings read alike, the source gives them in different places.

Experiments:
[1] = cited from earlier work
[2] = system: human skin fibroblast cell line CRL1121; assay: Stimulation of pro-collagen synthesis/secretion in cultured human skin fibroblasts (immunoblotting, densitometry); format: cell-based; settings: for pro-collagen synthesis/secretion: serum-free medium with sodium ascorbate and 0.5% ethanol, vs control carrier, immunoblot FIG. 1
Experimental: The effect of N-octanoyl-Gly-Pro (also referred to herein as OGP) prepared in Example 2 on intracellular synthesis of pro-collagen, the precursor of collagen, was tested. OGP was applied from a 250 mg/ml stock solution in ethanol. The composition of the solute, estimated by thin layer chromatography, was 80% OGP, 15% nicotinamide and 5% octanoic acid.
The human skin fibroblast cell line CRL1121, obtained from ATCC (American Type Culture Collection), was used for monitoring pro-collagen synthesis. Cells were grown in high glucose-DMEM containing 10% Fetal Calf Serum and antibiotics (streptomycin and penicillin). Confluent cells were suspended and inoculated into wells in 96-well microplates at 7,500 cells/well. At confluency, the cells were placed on fresh medium plus sodium ascorbate (50 μg/ml) for 24 hrs. The cells were then washed with phosphate-buffered saline (PBS) and placed on serum-free medium containing sodium ascorbate, 0.5% ethanol and 50 μM OGP. Controls included cells placed in the same medium, without OGP. After 24 hrs incubation of the experimental and control cells, media were collected, centrifuged, and the proteins were denatured by SDS and heat, and stored at −20° C. for immunoblotting analyses. The cell layers were washed with PBS, dissolved in SDS sample buffer, centrifuged and stored at −20° C. until use.
The relative amount of pro-collagen secreted into the medium was determined by immunoblotting with an antibody directed to the C-terminal telopeptide of the α1(I) collagen chain, followed by enhanced chemiluminescence detection and densitometry (Shalitin N, Schlesinger H, Levy, M J, Kessler E, Kessler-Icekson G. Expression of procollagen C-proteinase enhancer in cultured rat heart fibroblasts: Evidence for co-regulation with type I collagen, J. Cell. Biochem. 90:397-407, 2003). Protein concentrations in the cell lysates were determined using the Lowry method and served for standardization. The relative Optical Density of the band corresponding to the (I) chain of pro-collagen was divided by the amount of protein and was expressed as D/P (i.e. band intensity per 1 μg protein). […] FIG. 2 presents the relative amounts of the produced and secreted pro-collagen in the OGP-treated culture compared to the control.

For `NC(=O)c1cccnc1` [nicotinamide], the solubility ([1]; ethanol) is listed as 1 g/1.5 ml and the solubility ([1]; water) is listed as 1 g/mL (≈ 8190 mM).
With N-octanoyl-Gly-Pro [OGP] the pro-collagen synthesis/secretion ([2]; 50 μM OGP, 24 hrs) was “greatly enhanced pro-collagen synthesis”, the pro-collagen synthesis/secretion ([2]; 50 μM OGP, 24 hrs, listed as Oct-GP) was “stimulates pro-collagen synthesis/secretion” and the “increase of pro-collagen synthesis and secretion (factor vs control)” value ([2]; 50 μM OGP, 24 hrs, densitometry of control lanes 3 and 4, standardized to protein contents) was ≥ 8.3. For the same molecule, the “relative amounts of pro-collagen produced and secreted into the medium (D/P ratio)” value ([2]; Oct-GP-treated culture vs control, densitometry standardized by protein, FIG. 2) was “higher than those of the control”.
